Test results published in US12662491B2 (Redona Therapeutics, Inc., priority 2020, dated 2026).

The molecules below were run against T1, Zcchc11 enzyme (Homo sapiens, UniProt Q5TAX3) (assay: TUTase assay (Zcchc11 assay, Lin28a-dependent polyuridylation of pre-let-7)). Conditions: Lin28a-dependent Zcchc11 (Z11) TUTase activity; read-out: Potency Lin28a-dep Z11 IC50.
T1 construct: made in house; host or cells: HEK293 cells (Zcchc11); E. coli Rosetta II (LIN28A)
T1 sequence (Q5TAX3 212-1420): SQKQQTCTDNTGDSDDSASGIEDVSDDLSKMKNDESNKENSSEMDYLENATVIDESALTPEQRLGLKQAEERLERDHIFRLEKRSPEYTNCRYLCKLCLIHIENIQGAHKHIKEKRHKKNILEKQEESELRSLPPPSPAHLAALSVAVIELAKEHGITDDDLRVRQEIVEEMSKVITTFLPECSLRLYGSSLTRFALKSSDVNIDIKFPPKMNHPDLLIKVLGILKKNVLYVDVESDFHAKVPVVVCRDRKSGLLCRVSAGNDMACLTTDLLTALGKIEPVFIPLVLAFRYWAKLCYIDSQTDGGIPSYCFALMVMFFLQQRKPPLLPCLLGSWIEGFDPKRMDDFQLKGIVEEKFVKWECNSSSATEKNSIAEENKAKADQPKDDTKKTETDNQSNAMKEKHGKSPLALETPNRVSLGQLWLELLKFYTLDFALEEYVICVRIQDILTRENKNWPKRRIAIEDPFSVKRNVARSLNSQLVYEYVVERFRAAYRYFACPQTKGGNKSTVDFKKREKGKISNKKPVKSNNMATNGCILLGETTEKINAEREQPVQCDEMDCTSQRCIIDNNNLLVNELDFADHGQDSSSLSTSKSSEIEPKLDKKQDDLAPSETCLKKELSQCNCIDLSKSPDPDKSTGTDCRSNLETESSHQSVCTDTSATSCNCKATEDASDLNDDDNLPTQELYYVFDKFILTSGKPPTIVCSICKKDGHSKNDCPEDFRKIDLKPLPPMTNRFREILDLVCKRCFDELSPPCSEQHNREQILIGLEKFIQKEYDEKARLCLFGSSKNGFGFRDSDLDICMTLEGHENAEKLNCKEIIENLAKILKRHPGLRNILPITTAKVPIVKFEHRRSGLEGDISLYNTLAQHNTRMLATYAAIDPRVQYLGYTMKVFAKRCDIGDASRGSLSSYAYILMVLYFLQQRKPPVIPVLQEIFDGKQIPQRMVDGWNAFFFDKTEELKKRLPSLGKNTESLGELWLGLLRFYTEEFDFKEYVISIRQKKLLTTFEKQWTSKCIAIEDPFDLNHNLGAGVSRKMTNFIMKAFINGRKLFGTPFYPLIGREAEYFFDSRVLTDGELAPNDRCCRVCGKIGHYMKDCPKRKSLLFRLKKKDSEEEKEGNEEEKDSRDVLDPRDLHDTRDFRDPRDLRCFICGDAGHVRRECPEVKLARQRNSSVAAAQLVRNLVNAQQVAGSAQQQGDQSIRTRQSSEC
Type: biochemical
Method in brief: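 Readout: time-dependent quench of 5′-fluorescein pre-let-7 (2 nM) as 3′-rhodamine A20 probe anneals to poly(U) tails. Enzyme 0.2 nM Zcchc11 (res. 212-1420), LIN28A 10 nM, UTP 5 uM; pH 7.3 HEPES, 150 mM KCl, 5 mM MgCl2, RT. 4-parameter IC50; 100% = DMSO, 0% = no UTP.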

CN(C)C1CN(c2ccc(-n3cc(C(=O)O)c(=O)c4cc(F)c(N5CC(c6cccnc6)C[C@@H]5COc5ncccc5Cl)cc43)cn2)C1 (single isomer, unassigned) [Compound 328] and CN(C)C1CN(c2ccc(-n3cc(C(=O)O)c(=O)c4cc(F)c(N5C[C@@H](c6cccnc6)C[C@@H]5COc5ncccc5Cl)cc43)cn2)C1 (single isomer, unassigned) [Compound 329] cannot be ordered by IC50: no more than 1000 nM for the first, no more than 1000 nM for the second.

First: O=C(O)c1cn(C2CC2)c2c(F)c(N3CCC[C@@H]3COc3ccccn3)c(F)cc2c1=O [Compound 79, (R)-1-cyclopropyl-6,8-difluoro-4-oxo-7-(2-((pyridin-2-yloxy)methyl)pyrrolidin-1-yl)-1,4-dihydro-quinoline-3-carboxylic acid]
Second: O=C(O)c1cn(C2CC2)c2c(Cl)c(N3CCC[C@@H]3COc3ccccn3)c(F)cc2c1=O [Compound 91, (R)-8-chloro-1-cyclopropyl-6-fluoro-4-oxo-7-(2-((pyridin-2-yloxy)methyl)pyrrolidin-1-yl)-1,4-dihydro-quinoline-3-carboxylic acid]
The IC50 of the first is lower: 1000 to 10000 nM for the first, 10000 to 50000 nM for the second. The first is the more potent here.

First: O=C(O)c1cn(-c2ccc(O)cc2F)c2c(F)c(N3CCC[C@@H]3COc3ccccn3)c(F)cc2c1=O [Compound 80, (R)-6,8-difluoro-1-(2-fluoro-4-hydroxy-phenyl)-4-oxo-7-(2-((pyridin-2-yloxy)methyl)pyrrolidin-1-yl)-1,4-dihydro-quinoline-3-carboxylic acid]
Second: O=C(O)c1cn(-c2ccc(O)cc2F)c2c(F)c(N3CCC[C@H]3COc3ccccn3)c(F)cc2c1=O [Compound 82, (S)-6,8-difluoro-1-(2-fluoro-4-hydroxy-phenyl)-4-oxo-7-(2-((pyridin-2-yloxy)methyl)pyrrolidin-1-yl)-1,4-dihydro-quinoline-3-carboxylic acid]
The IC50 of the first is lower: 1000 to 10000 nM for the first, 10000 to 50000 nM for the second.

First: O=C(O)c1cn(C2CC2)c2cc(N3CCC[C@H]3COc3ccccn3)c(F)cc2c1=O [Compound 81, (S)-1-cyclopropyl-6-fluoro-4-oxo-7-(2-((pyridin-2-yloxy)methyl)pyrrolidin-1-yl)-1,4-dihydro-quinoline-3-carboxylic acid]
Second: O=C(O)c1cn(C2CC2)c2cc(N3CCC[C@@H]3COc3ccccn3)c(F)cc2c1=O [Compound 87, (R)-1-cyclopropyl-6-fluoro-4-oxo-7-(2-((pyridin-2-yloxy)methyl)pyrrolidin-1-yl)-1,4-dihydro-quinoline-3-carboxylic acid]
The IC50 of the first is higher: 10000 to 50000 nM for the first, 1000 to 10000 nM for the second. The second is the more potent here.

O=C(O)c1cn(-c2ccc(O)cc2F)c2cc(N3CCC[C@@H]3COc3ccccn3)c(F)cc2c1=O [Compound 83, (R)-6-fluoro-1-(2-fluoro-4-hydroxy-phenyl)-4-oxo-7-(2-((pyridin-2-yloxy)methyl)pyrrolidin-1-yl)-1,4-dihydro-quinoline-3-carboxylic acid] and O=C(O)c1cn(-c2ccc(F)cc2F)c2cc(N3CCC[C@@H]3COc3ccccn3)c(F)cc2c1=O [Compound 84, (R)-1-(2,4-difluorophenyl)-6-fluoro-4-oxo-7-(2-((pyridin-2-yloxy)methyl)pyrrolidin-1-yl)-1,4-dihydro-quinoline-3-carboxylic acid] cannot be ordered by IC50: no more than 1000 nM for the first, no more than 1000 nM for the second.

O=C(O)c1cn(-c2ccccc2)c2cc(N3CCC[C@@H]3COc3ccccn3)c(F)cc2c1=O [Compound 85, (R)-6-fluoro-4-oxo-1-phenyl-7-(2-((pyridin-2-yloxy)methyl)pyrrolidin-1-yl)-1,4-dihydro-quinoline-3-carboxylic acid] and Cc1ccnc(OC[C@H]2CCCN2c2cc3c(cc2F)c(=O)c(C(=O)O)cn3-c2ccccc2)c1 [Compound 94, (R)-6-fluoro-7-(2-(((4-methyl-pyridin-2-yl)oxy)methyl)pyrrolidin-1-yl)-4-oxo-1-phenyl-1,4-dihydro-quinoline-3-carboxylic acid] cannot be ordered by IC50: no more than 1000 nM for the first, no more than 1000 nM for the second.

O=C(O)c1cn(-c2ccccc2)c2c(F)c(N3CCC[C@@H]3COc3ccccn3)c(F)cc2c1=O [Compound 86, (R)-6,8-difluoro-4-oxo-1-phenyl-7-(2-((pyridin-2-yloxy)methyl)pyrrolidin-1-yl)-1,4-dihydro-quinoline-3-carboxylic acid] and O=C(O)c1cn(-c2ccccc2)c2cc(N3CCC[C@@H]3COc3ncccc3F)c(F)cc2c1=O [Compound 98, (R)-6-fluoro-7-(2-(((3-fluoropyridin-2-yl)oxy)methyl)pyrrolidin-1-yl)-4-oxo-1-phenyl-1,4-dihydro-quinoline-3-carboxylic acid] cannot be ordered by IC50: no more than 1000 nM for the first, no more than 1000 nM for the second.

O=C(O)c1cn(-c2ncc(O)cn2)c2cc(N3CCC[C@@H]3COc3ccccn3)c(F)cc2c1=O [Compound 88, (R)-6-fluoro-1-(5-hydroxy-pyrimidin-2-yl)-4-oxo-7-(2-((pyridin-2-yloxy)methyl)pyrrolidin-1-yl)-1,4-dihydro-quinoline-3-carboxylic acid] and O=C(O)c1cn(-c2ccc(O)cc2F)c2cc(N3CCC[C@@H]3COc3ccccn3)c(Cl)cc2c1=O [Compound 95, (R)-6-chloro-1-(2-fluoro-4-hydroxy-phenyl)-4-oxo-7-(2-((pyridin-2-yloxy)methyl)pyrrolidin-1-yl)-1,4-dihydro-quinoline-3-carboxylic acid] cannot be ordered by IC50: 1000 to 10000 nM for the first, no more than 1000 nM for the second.

Compared with O=C(O)c1cn(-c2ccc(O)cc2F)c2cc(N3CCC[C@@H]3COc3cnccn3)c(F)cc2c1=O [Compound 89, (R)-6-fluoro-1-(2-fluoro-4-hydroxy-phenyl)-4-oxo-7-(2-((pyrazin-2-yloxy)methyl)pyrrolidin-1-yl)-1,4-dihydro-quinoline-3-carboxylic acid], O=C(O)c1cn(-c2ccc(O)cc2F)c2cc(N3CCC[C@@H]3COc3ccccc3)c(F)cc2c1=O [Compound 90, (R)-6-fluoro-1-(2-fluoro-4-hydroxy-phenyl)-4-oxo-7-(2-(phenoxy-methyl)pyrrolidin-1-yl)-1,4-dihydro-quinoline-3-carboxylic acid] is higher in IC50: 10000 to 50000 nM for the first, greater than 50000 nM for the second. The first is the more potent here.

Cc1cccc(OC[C@H]2CCCN2c2cc3c(cc2F)c(=O)c(C(=O)O)cn3-c2ccccc2)n1 [Compound 92, (R)-6-fluoro-7-(2-(((6-methyl-pyridin-2-yl)oxy)methyl)pyrrolidin-1-yl)-4-oxo-1-phenyl-1,4-dihydro-quinoline-3-carboxylic acid] and Cc1ccc(OC[C@H]2CCCN2c2cc3c(cc2F)c(=O)c(C(=O)O)cn3-c2ccccc2)nc1 [Compound 93, (R)-6-fluoro-7-(2-(((5-methyl-pyridin-2-yl)oxy)methyl)pyrrolidin-1-yl)-4-oxo-1-phenyl-1,4-dihydro-quinoline-3-carboxylic acid] cannot be ordered by IC50: no more than 1000 nM for the first, no more than 1000 nM for the second.

Going from O=C(O)c1cn(C2CC2)c2cc(N3CCC[C@@H]3COc3ccccc3)c(F)cc2c1=O [Compound 96, (R)-1-cyclopropyl-6-fluoro-4-oxo-7-(2-(phenoxy-methyl)pyrrolidin-1-yl)-1,4-dihydro-quinoline-3-carboxylic acid] to O=C(O)c1cn(-c2ccccc2)c2cc(N3CCC[C@@H]3COc3ncccc3Cl)c(F)cc2c1=O [Compound 97, (R)-7-(2-(((3-chloro-pyridin-2-yl)oxy)methyl)pyrrolidin-1-yl)-6-fluoro-4-oxo-1-phenyl-1,4-dihydro-quinoline-3-carboxylic acid], the IC50 falls from greater than 50000 nM to no more than 1000 nM. The second is the more potent here.

COc1cccnc1OC[C@H]1CCCN1c1cc2c(cc1F)c(=O)c(C(=O)O)cn2-c1ccccc1 [Compound 99, (R)-6-fluoro-7-(2-(((3-methoxy-pyridin-2-yl)oxy)methyl)pyrrolidin-1-yl)-4-oxo-1-phenyl-1,4-dihydro-quinoline-3-carboxylic acid] and O=C(O)c1cn(-c2ccccc2)c2cc(N3CCC[C@@H]3COc3ncccc3C(F)(F)F)c(F)cc2c1=O [Compound 100, (R)-6-fluoro-4-oxo-1-phenyl-7-(2-(((3-(trifluoro-methyl)pyridin-2-yl)oxy)methyl)pyrrolidin-1-yl)-1,4-dihydro-quinoline-3-carboxylic acid] cannot be ordered by IC50: no more than 1000 nM for the first, no more than 1000 nM for the second.
